Results taken from publication PMC6795431, “Identification and characterisation of capidermicin, a novel bacteriocin produced by Staphylococcus capitis” (PLoS ONE, 2019).
Entries after “also recorded” stand apart in the source; their conditions may differ. Where no end group is shown, it is not given here. The star is where a group is joined. For = O=C*

What was measured:
[1] = Temperature stability, bioactivity by agar well diffusion; format: physicochemical; settings: purified peptide, 10, 30, 40, 50, 80, 90 or 121°C for 15 minutes; agar well diffusion with L. lactis HP
Description: (§1) The susceptibility of purified capidermicin peptide to temperature, pH and protease enzymes was investigated through well diffusion assays. To determine temperature stability the purified peptide was subjected to 10, 30, 40, 50, 80, 90, 121°C for 15 minutes. Bioactivity was then determined by carrying out an agar well diffusion assay with L. lactis HP as the bacterial indicator. To evaluate the susceptibility of the peptide to varying pH values, the purified peptide solution was adjusted to pH 2–11 using 1M HCl or 1M NaOH, respectively. After a brief vortex, the peptide was incubated at room temperature for 15 minutes, and the bioactivity was again determined with the well diffusion assay with L. lactis HP. The susceptibility of the peptide to proteolytic cleavage was analysed using trypsin, α-chymotrypsin, pepsin and proteinase K (Sigma-Aldrich). Protease enzymes were dissolved in 100 mM Tris-HCl– 10 mM CaCl2, to a final concentration of 100 μg/ml. Preparations of capidermicin were incubated with the various enzymes at 37°C for 4 hours and the bioactivity of capidermicin was reassessed using the well diffusion assay described above.

[2] = pH stability, bioactivity by agar well diffusion; format: physicochemical; settings: 15 minutes at room temperature, agar well diffusion with L. lactis HP
Description: as §1

[3] = test system: trypsin; settings: cited from earlier work
Description: (§2) Similar findings have been reported for epidermicin NI01 [42] and lacticin Q [41]. While capidermicin is insensitive to α-chymotrypsin and pepsin, a 70% reduction in activity was observed when it was treated with proteinase K or trypsin. […] Resistance to proteases has been reported for other staphyloco ...

[4] = target: T1, proteinase K (Parengyodontium album, UniProt P06873); settings: previously observed; cited from earlier work
T1 construct: purchased Sigma-Aldrich
T1 sequence (P06873 106-384): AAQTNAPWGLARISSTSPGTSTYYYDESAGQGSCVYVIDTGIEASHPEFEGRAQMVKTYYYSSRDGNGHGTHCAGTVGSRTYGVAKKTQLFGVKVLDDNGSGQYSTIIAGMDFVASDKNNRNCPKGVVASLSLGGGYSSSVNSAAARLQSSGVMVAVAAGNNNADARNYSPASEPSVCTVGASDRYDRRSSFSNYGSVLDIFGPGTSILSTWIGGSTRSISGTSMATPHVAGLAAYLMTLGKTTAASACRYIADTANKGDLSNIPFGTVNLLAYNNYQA
Description: as §2

| Substance | Antimicrobial activity following heat treatment [1] | Bioactivity following exposure to pH 2–8 ([2]; pH adjusted with 1M HCl or 1M NaOH) | Decrease in zone of inhibition at pH 9–11 ([2]; pH adjusted with 1M NaOH) | Reduction in activity for trypsin [3] | Reduction in activity for proteinase K [4] |
| --- | --- | --- | --- | --- | --- |
| For-MSKVISALSKYGPKAVNWAKNHKGQIANWLLHGLSIPDIVQNVKNAVGIK [capidermicin] | retained; also recorded: unaffected | full bioactivity | 70% | – | – |
| epidermicin NI01 | – | – | – | 50% | 75% |
